Experimental findings from PubChem BioAssay AID651841 (Broad Institute, 2012) are described below.

Where “and” joins values, the source holds several entries; their conditions need not be identical. Identical values can stand only once. Calls of active or inactive are those of the source. No rule for the calls is given here.

For this test, the system named is CAI-1 sensor histidine kinase CqsS (Vibrio cholerae). Description: CqsS sensor histidine kinase agonist dose response, Vibrio cholerae WN1103 delta luxQ, confirmatory (AID 651841). The conditions noted are these: V. cholerae WN1103 delta luxQ, luciferase light, 6 h; for activation: at 80 µM (top of the series).

As for `CCn1nnnc1CCc1ccc(N2CCCC2)cc1`, the AC40 is 713 nM.
Still for that read-out and setting: the result for `CC(C)c1ccc(CNc2nnnn2C)cc1` reads 577 nM.
For `Cc1ccc(Cn2nnnc2NCc2ccc(N3CCCC3)cc2)cc1`, the activation is 0.549% (inactive).
The same measure, in the same setting: the result for `CCn1nnc(NCc2ccc(C)cc2)n1` reads 0.069% (inactive); that for `c1ccc(Cn2nnnc2NCc2ccc(N3CCCC3)cc2)cc1`, 0.279% (inactive); that for `COc1ccc(CC(=O)NC2CCCC2)cc1`, 13% (inactive).
In the case of `CCc1ccccc1NCc1ccc(N2CCCC2)cc1`, the activation was 0.105% (inactive).
For the molecule `CCCn1nnnc1NCc1ccc(N2CCCC2)cc1`, the AC40 was 12.1 nM.
The same measure, in the same setting: the result for `CCn1nnnc1NCc1ccc(N2CCCC2)cc1` reads 10.7 nM; that for `CCn1nnnc1NCc1ccc(C(C)C)cc1`, 5.01 nM and 45.1 nM.
On to `CCn1nnnc1NCc1cccc(N2CCCC2)c1`, for which the AC40 was 51.2 nM.
As for `O=C(Cc1ccccc1Cl)NC1CCCC1`, the activation is 0.107% (inactive).
For `CCCCn1nnnc1NCc1ccc(N2CCCC2)cc1`, the AC40 was 2640 nM.
As to `O=C(Cc1ccc(-c2ccccc2)cc1)NC1CCC1`, the AC40 was 280 nM.
On to `c1ccc(Cn2nnc(NCc3ccc(N4CCCC4)cc3)n2)cc1`, for which the activation is 0.159% (inactive).
The same measure, in the same setting: the same measure for `c1ccc(-n2nnnc2NCc2ccc(N3CCCC3)cc2)cc1`: 0.501% (inactive); for `O=C(Cc1cccc(F)c1)NC1CCCC1`: 0.377% (inactive).
In the case of `CCn1nccc1/N=C/c1ccc(N2CCCC2)cc1`, the activation is 0.487% (inactive).
For the molecule `O=C(Cc1cccc(OC(F)(F)F)c1)NC1CCCC1`, the activation was 2.18% (inactive).
As for `O=C(Cc1ccccc1C(F)(F)F)NC1CCCC1`, the activation is 0.044% (inactive).
On to `O=C(Cc1ccccc1F)NC1CCCC1`, for which the activation is 0.603% (inactive).
For the molecule `CS(=O)(=O)c1ccc(CC(=O)NC2CCCC2)cc1`, the activation was 0.008% (inactive).
Same read-out and setting: the result for `O=C(NCc1ccc(-c2ccccc2)cc1)C1CCCC1` reads 3.17% (inactive); that for `Fc1ccc(Cn2nnnc2NCc2ccc(N3CCCC3)cc2)cc1`, 0.54% (inactive).
On to `CCC(C)NC(=O)Cc1ccc(-c2ccccc2)cc1` (stereo not given), for which the AC40 is 2060 nM.
Take `O=C(Cc1ccc(-c2ccccc2)cc1)NC1CCCCC1`: the AC40 is 8980 nM.
For `CCn1nccc1NCc1ccc(N2CCCC2)cc1`, the activation was 0.149% (inactive).
Same read-out and setting: the same measure for `O=C(Cc1ccccc1OC(F)(F)F)NC1CCCC1`: 0.045% (inactive); for `CCn1nnnc1NCc1cccc(OC)c1`: 24.5% (inactive).
With `Cn1nnnc1NCc1ccc(N2CCCC2)cc1`, the AC40 is 351 nM.
As for `CCC(CC)NC(=O)Cc1ccc(-c2ccccc2)cc1`, the AC40 was 2200 nM.
For `CCn1nnc(CCc2ccc(N3CCCC3)cc2)n1`, the activation was 0.131% (inactive).
Still for that read-out and setting: the same measure for `CCCn1nnnc1NCc1ccccc1Cl`: 0.104% (inactive).
On to `O=C(Cc1ccc(-c2ccccc2)cc1)NC1CCCC1`, for which the AC40 is 212 nM and 313 nM.
Take `Cc1ccccc1CC(=O)NC1CCCC1`: the activation was 0.164% (inactive).
As to `CC(C)NC(=O)Cc1ccc(-c2ccccc2)cc1`, the AC40 is 2500 nM.
For the molecule `O=C(Cc1ccc(-c2ccccc2)cc1)NC1CCOCC1`, the AC40 is 1200 nM.
The same measure, in the same setting: the same measure for `CCCn1nnnc1NCc1ccc(C(C)C)cc1`: 319 nM.
`CCn1nnnc1NCc1ccccc1N1CCCC1`: the activation is 0.052% (inactive).
As for `CCn1nnnc1NCc1ccc(N2CCCCC2)cc1`, the AC40 is 55.5 nM.
